Measurements as given in patent publication US9943569B2, “Method for preventing or reducing postoperative pulmonary complications” (OSAKA UNIVERSITY, priority 2015, dated 2018).

System: interleukin-6 (IL-6)
Test: Postoperative change in serum IL-6 (enzyme immunoassay)
Type: in vivo, human
Details: n=20
Description: The primary endpoint of this study was SIRS duration. The secondary endpoints were postoperative complications, serum C-reactive protein (CRP) and IL-6 levels, time required to attain a positive nitrogen balance, and changes in body weight and body composition. Postoperative complications were defined as adverse events caused by surgery. Patients received an intravenous continuous infusion of ghrelin (0.5 μg/kg/h) or placebo (pure saline) for 5 days postoperatively. Ghrelin was diluted to a final volume of 48 mL with saline, and the solution was administered at a rate of 2 mL/h by using an infusion pump through a central venous catheter inserted into the right subclavian vein. The same amount of ghrelin was administered via intravenous infusion during the 5 days of treatment; the dose was calculated on the basis of body weight on the day before surgery. Patients in the placebo group received the corresponding infusion containing pure saline using same procedure.
Blood sampling was performed at the following 7 time points: before surgery; 2 hours after initiation of surgery (during thoracotomy); 4 hours after initiation of surgery (during laparotomy); and on PODs 1, 3, 7, and 10. Complete blood count was performed every day for at least 10 PODs. If the leukocyte count was not within the normal range on POD10, complete blood counts were performed daily until it was within the normal range for 3 consecutive days. SIRS was diagnosed according to the criteria proposed by the American College of Chest Physicians/Society of Critical Care Medicine Consensus Conference^32 and when 2 or more of the following criteria were present: (1) body temperature less than 36° C. or more than 38° C.; (2) heart rate more than 90 beats per minute; (3) tachypnea with more than 20 breaths per minute or an arterial partial pressure of carbon dioxide less than 32 mm Hg; and (4) white blood cell count less than 4000 cells/mm^3, >12,000 cells/mm^3, or an immature (band) form more than 10%. Postoperative complications were evaluated according to the Clavien-Dindo classification.^33 Grade I required no treatment, grade II required medical therapy, grade Ma required interventions but not general anesthesia, grade Mb required general anesthesia, grade IV represented life-threatening states that required intensive care, and grade V represented death.
Sampled blood was immediately transferred into a chilled glass tube containing disodium ethylenediaminetetraacetic acid for plasma sampling or a separating agent for serum sampling, and the samples were then centrifuged at 4° C. Plasma samples were mixed with a 10% volume of 1 N HCl and stored at −80° C. Serum samples were directly stored at −80° C. Sandwich-type enzyme immunoassay kits were used to measure levels of plasma active ghrelin, des-acyl ghrelin, and serum IL-6 according to the manufacturers' protocols (for ghrelin: Mitsubishi Kagaku Iatron, Inc, Tokyo, Japan; for IL-6: R&D Systems, Minneapolis, Minn.). Total plasma ghrelin levels were calculated as the active ghrelin level plus the des-acyl ghrelin level.^34 An Access 2 kit, a chemiluminescent enzyme immunoassay (Beckman Coulter, Inc, Brea, Calif.), was used to measure serum GH levels.

SMILES: CCCCCCCC(=O)OC[C@H](NC(=O)[C@H](CO)NC(=O)CN)C(=O)N[C@@H](Cc1ccccc1)C(=O)N[C@@H](CC(C)C)C(=O)N[C@@H](CO)C(=O)N1CCC[C@H]1C(=O)N[C@@H](CCC(=O)O)C(=O)N[C@@H](Cc1cnc[nH]1)C(=O)N[C@@H](CCC(N)=O)C(=O)N[C@@H](CCCNC(=N)N)C(=O)N[C@H](C(=O)N[C@@H](CCC(N)=O)C(=O)N[C@@H](CCC(N)=O)C(=O)N[C@@H](CCCNC(=N)N)C(=O)N[C@@H](CCCCN)C(=O)N[C@@H](CCC(=O)O)C(=O)N[C@@H](CO)C(=O)N[C@@H](CCCCN)C(=O)N[C@@H](CCCCN)C(=O)N1CCC[C@H]1C(=O)N1CCC[C@H]1C(=O)N[C@@H](C)C(=O)N[C@@H](CCCCN)C(=O)N[C@@H](CC(C)C)C(=O)N[C@@H](CCC(N)=O)C(=O)N1CCC[C@H]1C(=O)N[C@@H](CCCNC(=N)N)C(=O)O)C(C)C [ghrelin]
- Serum IL-6 (POD1): 95.2 ± 131.0 pg/mL
- Serum IL-6 (POD3): 43.1 ± 47.1 pg/mL
- Serum IL-6 (POD3, listed as Ghrelin): 43.1 ± 47.1 pg/mL
- Serum IL-6 (POD7): 15.3 ± 11.3 pg/mL
- Serum IL-6 (POD10): 14.2 ± 17.9 pg/mL
- Serum IL-6 (Preoperative (baseline)): 4.3 ± 4.8 pg/mL
